Key:
Format in all cases: cell-based
APOL1 G2 = target: T1, APOL1 G2 (Homo sapiens, UniProt O14791, DEL388-389); assay: APOL1-mediated calcium transport (calcium influx) assay, HEK T-REx/GCaMP6f/APOL1 G2 K6.3 cells, FLIPR TETRA; conditions: prevention of calcium influx; geometric mean of at least 2 assay runs; † = average of a technical replicate from a single assay run
T1 construct: expressed in transfected cells; host or cells: HEK293 T-REx clonal line stably expressing GCaMP6f (HEK T-REx/GCaMP6f/APOL1 G2 K6.3), doxycycline induced
T1 sequence (O14791 with tags, fused parts or gaps DEL388-389): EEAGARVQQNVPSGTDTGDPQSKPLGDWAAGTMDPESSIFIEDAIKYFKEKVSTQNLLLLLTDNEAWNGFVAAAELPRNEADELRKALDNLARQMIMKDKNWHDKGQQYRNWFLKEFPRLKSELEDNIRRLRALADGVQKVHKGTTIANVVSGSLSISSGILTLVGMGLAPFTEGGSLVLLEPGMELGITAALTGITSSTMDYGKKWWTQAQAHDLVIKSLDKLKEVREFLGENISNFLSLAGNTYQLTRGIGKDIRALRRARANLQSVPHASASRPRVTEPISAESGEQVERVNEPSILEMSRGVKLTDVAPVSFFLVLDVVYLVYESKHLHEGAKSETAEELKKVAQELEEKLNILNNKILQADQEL
Description: A HEK293 clonal cell line was generated to stably express GCaMP6f, a genetically encoded calcium indicator, and inducibly express APOL1 G2 (HEK T-REx/GCaMP6f/APOL1 G2 K6.3). Cells were maintained in the following standard complete medium: DMEM with 4.5 g/L glucose and sodium pyruvate (BioWhittaker, Lonza, BE12-614F), supplemented with 10% FBS Performance Plus (Gibco, 16000044), 1% penicillin-streptomycin (BioWhittaker, DE17-602E), 2 mM ultraglutamine-1 (BioWhittaker cat. BE 17-605/U1), 50 μg/mL Zeocin (InvivoGen, ant-zn), 2.5 μg/mL Blasticidin (InvivoGen, ant-bl-5), and 25 μg/mL Hygromycin (InvivoGen, ant-hg). Standard propagation conditions consisted of plating 9×10^6, 4×10^6, 2×10^6 cells in a T225 flasks to be processed after 2, 3, or 4 days, respectively.
A source plate was generated containing 20 serially diluted compounds in DMSO (duplicate 8-point dose response). Next, 0.8 μL of compounds were transferred from the source plate to a destination plate prefilled with 79.2 μL of Ca^2+ free Tyrode's buffer (130 mM NaCl, 5 mM KCl, 1 mM MgCl2, 5 mM NaHCO3, 20 mM HEPES at pH 7.4). The destination plate was placed on a plate shaker (5 seconds at 2000 rpm) to mix. […] All transfer and mixing steps were conducted with an CyBi®-Well dispenser.
Cells were split by gently washing with DPBS (Euroclone, ECB4004L), followed by a 5-minute incubation (humidified, 37° C. with 5% CO2) with trypsin-EDTA solution (Euroclone, ECB3052D). Detached cells were diluted with standard complete medium without selective agents, counted, and plated in a 384 MTP microplate (GR4332CPL, Twin Helix) (10,000 cells/well in 25 μl/well) using a MATRIX WellMate dispenser. Plates were placed into a humidified incubator (37° C. with 5% CO2) overnight. The following day, 20 μL of doxycycline (Sigma, D9891) at 20 ng/mL in standard complete medium was added to cells with a CyBi® Drop dispenser to induce APOL1 G2 expression. After a 6-hour incubation (humidified, 37° C. with 5% CO2), cells were washed 3 times with Ca^2+ free Tyrode's Buffer (130 mM NaCl, 5 mM KCl, 1 mM MgCl2, 5 mM NaHCO3, 20 mM HEPES at pH 7.4) using a BIOTEK Microplate washer, such that 10 μL of buffer remained in each well after the final wash. Assay plates were then stored at room temperature for 10 minutes. Next, 10 μL of diluted compounds were transferred to the assay plate from the 2× compound plate using a CyBi®-Well dispenser. Compound incubation was then carried out at room temperature for 10 minutes. The assay plate was transferred to the FLIPR^TETRA and 20 μL of 10 mM Ca^2+ (final concentration=5 mM) Tyrode's buffer was injected.
Unless otherwise specified, AC50 and values are reported as the geometric mean of at least 2 assay runs on separate days. Each run represents the average of a technical replicate, where each compound was assayed twice in the same plate. A superscript t symbol indicates a value from the average of a technical replicate from a single assay run, where each compound was assayed twice in the same plate.
The AC50 values in Table 39 below reflect the compound's ability to prevent calcium influx by inhibiting APOL1. […] Compounds in Table 39 are referred to by the corresponding Compound Number in Table 1, which is also referred to in the synthetic examples. When one or more of the numbered compounds are identified by stereochemistry (for example, (R)- or (S)-), the specific stereoisomer for which data is provided in Table 39 may be identified by the elution order of such compound as described in the synthetic examples. For example, Compounds 39 and 40 are associated with Step 5 of Example 13, where Compound 39 is the first eluting enantiomer, and Compound 40 is the second eluting enantiomer in the chiral separation of Compound 38. For Table 39 below, n/a represents “not available”.

[1] = system: HEK293 cells overexpressing APOL1 G2; assay: APOL1 G2 HEK293 cell rescue assay (reversal of cell death caused by overexpression of APOL1); conditions: geometric mean of at least 2 assay runs, † = single assay run
In short: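 Each compound tested in duplicate wells on one plate per run, with values usually the geometric mean across at least two runs on different days, occasionally from one run only. Read-out: concentration giving half-maximal rescue of APOL1 G2 overexpression-induced death of HEK293 cells.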

[2] = system: HEK293 clonal cell line overexpressing APOL1 G1; assay: APOL1 G1 HEK293 cell rescue assay (Example B3); conditions: geometric mean of at least 2 runs, † = single run, ¥ = concentration at 50% rescue estimated (no sigmoidal curve)
In short: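 Rescue of cell death caused by APOL1 G1 overexpression was measured in a clonal HEK293 line. Compounds were tested in duplicate on one plate, and EC50s were geometric means across at least two runs on different days. Some values are estimated 50%-rescue concentrations where curve fitting failed.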

[3] = HEK293 clonal line overexpressing APOL1 G1
[4] = Homo sapiens, HEK293, HEK293 overexpressing APOL1 G2
[5] = Homo sapiens, HEK293, HEK293 clonal line overexpressing APOL1 G1

Compound | AC50 (APOL1 G2) [µM] | EC50 ([1]; HEK293 overexpressing APOL1 G2) [µM] | EC50 [2, 3] [µM] | EC50 [1, 4] [µM] | EC50 [2, 5] [µM]
CC(COc1ccc2c(c1)CCC(=O)N2C)N1CCC2(CC1)C(=O)Nc1ccc(C#N)cc12 (single isomer, unassigned) [Compound 204, (R) or (S)-1′-{1-[(1-methyl-2-oxo-1,2,3,4-tetrahydroquinolin-6-yl)oxy]propan-2-yl}-2-oxo-1,2-dihydrospiro[indole-3,4′-piperidine]-5-carbonitrile] | 0.869 | 1.55 | 1.27 |  | 
CN1C(=O)Cc2cc(OCCN3CCC4(CC3)C(=O)N(C)c3ccccc34)ccc21 [Compound 33, 1-methyl-1′-{2-[(1-methyl-2-oxo-2,3-dihydro-1H-indol-5-yl)oxy]ethyl}-1,2-dihydrospiro[indole-3,4′-piperidin]-2-one] | 0.218 |  |  | 1.07 | > 3.47
O=C1NCc2cc(OCCN3CCC4(CC3)C(=O)Nc3ccc(Cl)cc34)ccc21 [Compound 171, 5-chloro-1′-{2-[(1-oxo-2,3-dihydro-1H-isoindol-5-yl)oxy]ethyl}-1,2-dihydrospiro[indole-3,4′-piperidin]-2-one] | 0.598 |  |  | 0.1 | 0.228
CN1C(=O)C2(CCN(CCOc3ccc4ncn(C)c(=O)c4c3)CC2)c2ccccc21 [Compound 29, 1-methyl-1′-{2-[(3-methyl-4-oxo-3,4-dihydroquinazolin-6-yl)oxy]ethyl}-1,2-dihydrospiro[indole-3,4′-piperidin]-2-one] | 0.586 |  |  | 1.42 | 5.56
O=C1NCC2c3ccc(OCCN4CCC5(CC4)C(=O)Nc4ccc(Cl)cc45)cc3CCN12 (stereo not drawn) [Compound 115, 5-chloro-1′-[2-({3-oxo-1H,2H,3H,5H,6H,10bH-imidazo[4,3-a]isoquinolin-8-yl}oxy)ethyl]-1,2-dihydrospiro[indole-3,4′-piperidin]-2-one] | 0.472 |  |  | 0.0949 | 0.199
CS(=O)(=O)CCCS(=O)(=O)c1ccc(OCCN2CCC3(CC2)C(=O)Nc2ccc(Cl)cc23)cc1 [Compound 41, 5-chloro-1′-{2-[4-(3-methanesulfonylpropanesulfonyl)phenoxy]ethyl}-1,2-dihydrospiro[indole-3,4′-piperidin]-2-one] | 0.709 |  |  | 0.097 | 0.307
N#Cc1ccc2c(c1)C1(CCN(CCOc3ccc4c(c3)CCN3C(=O)NCC43)CC1)C(=O)N2 (stereo not drawn) [Compound 118, 2-oxo-1′-[2-({3-oxo-1H,2H,3H,5H,6H,10bH-imidazo[4,3-a]isoquinolin-8-yl}oxy)ethyl]-1,2-dihydrospiro[indole-3,4′-piperidine]-5-carbonitrile] | 1.04 |  |  | 0.431 | ~2.1
N#Cc1ccc2c(c1)C1(CCN(CCOc3ccc4c(c3)CCN3C(=O)CCC43)CC1)C(=O)N2 (single isomer, unassigned) [Compound 126, (R) or (S)-2-oxo-1′-[2-({3-oxo-1H,2H,3H,5H,6H,10bH-pyrrolo[2,1-a]isoquinolin-8-yl}oxy)ethyl]-1,2-dihydrospiro[indole-3,4′-piperidine]-5-carbonitrile] | 0.624 | 0.273 | 1.01 |  | 
CN1C(=O)C2(CCN(CCOc3ccc(S(C)(=O)=O)cc3)CC2)c2ccccc21 [Compound 67, 1′-[2-(4-methanesulfonylphenoxy)ethyl]-1-methyl-1,2-dihydrospiro[indole-3,4′-piperidin]-2-one] | 0.351 |  |  | 0.802 | 2.86
CC(=O)N1CCCc2cc(OCCN3CCC4(CC3)C(=O)Nc3ccc(C#N)cc34)ccc21 [Compound 59, 1′-{2-[(1-acetyl-1,2,3,4-tetrahydroquinolin-6-yl)oxy]ethyl}-2-oxo-1,2-dihydrospiro[indole-3,4′-piperidine]-5-carbonitrile] | 0.879 |  |  | 0.213 | 0.422
O=C1Nc2ccc(Cl)cc2C12CCN(CCOc1ccc(C3CCCS3(=O)=O)cc1)CC2 (stereo not drawn) [Compound 175, 2-[4-(2-{5-chloro-2-oxo-1,2-dihydrospiro[indole-3,4′-piperidin]-1′-yl}ethoxy)phenyl]-1λ^6-thiolane-1,1-dione] | 0.381 |  |  | 0.0631 | 0.153
CN1C(=O)C(C)(C)c2cc(OCCN3CCC4(CC3)C(=O)Nc3ccc(C#N)cc34)ccc21 [Compound 83, 2-oxo-1′-{2-[(1,3,3-trimethyl-2-oxo-2,3-dihydro-1H-indol-5-yl)oxy]ethyl}-1,2-dihydrospiro[indole-3,4′-piperidine]-5-carbonitrile] | 0.718 |  |  | 0.247 | 0.788
CC(=O)N1CCCc2cc(OCCN3CCC4(CC3)C(=O)Nc3ccc(Cl)cc34)cnc21 [Compound 80, 1′-{2-[(8-acetyl-5,6,7,8-tetrahydro-1,8-naphthyridin-3-yl)oxy]ethyl}-5-chloro-1,2-dihydrospiro[indole-3,4′-piperidin]-2-one] | 0.375 |  |  | 0.0657 | 0.178
C[C@@H](CN1CCC2(CC1)C(=O)Nc1ccc(Cl)cc12)Oc1ccc(S(C)(=O)=O)cc1 (single isomer, unassigned) [Compound 11] | 1.05 |  |  | 1.7 | 2.3
[2H]C([2H])([2H])N1C(=O)C2(CCN(CCOc3ccc(S(C)(=O)=NC)c(C(F)(F)F)c3)CC2)c2cc(Cl)ccc21 (stereo not drawn) [Compound 413, 5-chloro-1-(^2H3)methyl-1′-(2-{4-[methyl(methylimino)oxo-λ^6-sulfanyl]-3-(trifluoromethyl)phenoxy)ethyl)-1,2-dihydrospiro[indole-3,4′-piperidin]-2-one] | 0.251 |  |  | 0.0603 | 0.208

Reference: US12344610B2, “APOL1 inhibitors and methods of use” (Maze Therapeutics, Inc., priority 2022, dated 2025)
